Assay results from PubChem BioAssay (NCI).
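Briefly, cells in 96-well plates were exposed to five compound concentrations for 48 h, and endpoints were estimated by linear interpolation. GI50 = concentration required for 50% inhibition of growth. TGI marks complete inhibition of growth.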

Columns and labels:
Assay in all cases: growth of human tumour cells (NCI), 48 h
786-0 renal = system: 786-0 renal
A498 renal = system: A498 renal
COLO 205 colon = system: COLO 205 colon
HT29 colon = system: HT29 colon
K-562 leukemia = system: K-562 leukemia
LOX IMVI melanoma = system: LOX IMVI melanoma
OVCAR-8 ovarian = system: OVCAR-8 ovarian
SF-295 CNS = system: SF-295 CNS
IGROV1 ovarian = system: IGROV1 ovarian
MCF7 breast = system: MCF7 breast

| SMILES | TGI (786-0 renal) [µM] | TGI (A498 renal) [µM] | TGI (COLO 205 colon) [µM] | TGI (HT29 colon) [µM] | TGI (K-562 leukemia) [µM] | TGI (LOX IMVI melanoma) [µM] | TGI (OVCAR-8 ovarian) [µM] | TGI (SF-295 CNS) [µM] | GI50 (786-0 renal) [µM] | GI50 (A498 renal) [µM] | GI50 (COLO 205 colon) [µM] | GI50 (HT29 colon) [µM] | GI50 (IGROV1 ovarian) [µM] | TGI (IGROV1 ovarian) [µM] | GI50 (K-562 leukemia) [µM] | GI50 (LOX IMVI melanoma) [µM] | GI50 (MCF7 breast) [µM] | TGI (MCF7 breast) [µM] | GI50 (OVCAR-8 ovarian) [µM] | GI50 (SF-295 CNS) [µM] |
| --- | --- | --- | --- | --- | --- | --- | --- | --- | --- | --- | --- | --- | --- | --- | --- | --- | --- | --- | --- | --- |
| C#CC1(O)CCC2[C@@H]3CCc4cc(Oc5nc(F)nc(-c6c7ccccc7cn6C)n5)ccc4C3CC[C@@]21C (stereo not given in full) | > 100 | > 100 | > 100 | > 100 | > 100 | > 100 | > 100 | > 100 |  |  |  |  |  |  |  |  |  |  |  |  |
| O=c1oc2ccc(-c3ccc(F)cc3F)cc2c(=O)n1-c1ccc(Cl)c(C(F)(F)F)c1 | 5.68 | 2.4 | 8.54 | > 100 | > 100 | 4.91 | > 100 | 3.62 | 2.34 | 0.656 | 2.89 | 3.07 | 3.14 | > 100 | 2.38 | 2.18 | 2.45 | > 100 | 2.99 | 1.81 |
| COc1ccc(C2C=C(c3ccc(Cl)cc3)N=C3SC=C(C)N32)c(Br)c1 (stereo not given) | 25.4 | 16.2 | 10.3 | 12.7 | > 100 | 7.56 | 50.7 |  | 3.57 | 4.18 | 3.54 | 3.62 | 3.62 | 20.4 | 4.02 | 2.21 | 2.32 | 12.5 | 3.32 |  |
| COc1ccc(Cn2cc3c(c2-c2ccccc2)CCc2cnoc2-3)cc1N | > 100 | 0.64 | 4.08 | 15.1 | > 100 | > 100 | > 100 | 3.28 | 0.602 | 0.0638 | 1.32 | 1.78 | 0.329 | > 100 | 0.0452 | 0.766 | 0.05 | > 100 | 0.468 | 0.154 |
| Cc1ccc(C)c(NC(=O)CC2SC(=Nc3ccccc3Cl)NC2=O)c1 (stereo not given) | > 100 | > 100 | > 100 | > 100 |  |  | > 100 | > 100 |  |  |  |  |  | > 100 |  |  |  |  |  |  |
| CC1=C[C@H]2C[C@H](C)[C@H]3CC[C@H](C)[C@]4(C1)C(=O)C(O)=C(C)C(=O)[C@@]324 | > 100 |  | 48.9 | > 100 | 39.5 | 51.1 | > 100 | > 100 | 30.1 |  | 19 | 27.8 | 29.6 | > 100 | 20 | 22.1 | > 100 | > 100 | 40.4 | > 100 |
| O=c1[nH]c(=O)n(C2OC(CO)C(O)C2O)cc1OCC(F)(F)F (stereo not given) | > 100 | > 100 | > 100 | > 100 | > 100 | > 100 | > 100 | > 100 |  |  |  |  |  | > 100 |  |  |  |  |  |  |
| CC(=O)N(O)Cc1ccccc1 | > 100 |  | > 100 | > 100 | > 100 | > 100 | > 100 | > 100 |  |  |  |  |  | > 100 |  |  |  |  |  |  |
| c1ccc(P(=C2c3ccccc3-c3ccccc32)(c2ccccc2)c2ccccc2)cc1 | 34 |  | 15 | 10.4 | 6 | 9.38 | 12.7 | 16.1 |  |  |  |  |  | > 100 |  |  |  |  |  |  |
| CCOc1ccc(O)cc1[P+](c1ccccc1)(c1ccccc1)c1ccccc1 | 20.2 | 29.5 | 10 | 17.6 | 9.48 | 13.6 | 15.7 | 19.9 |  |  |  |  |  |  |  |  |  |  |  |  |
| Cc1ccc(NC(=O)/C(=N/N(C)C)C(C2OC(=O)c3ccccc32)[N+](=O)[O-])cc1 (stereo not given) | > 100 | > 100 |  | > 100 | > 100 | > 100 | > 100 | > 100 |  |  |  |  |  |  |  |  |  | > 100 |  |  |
| O=c1[nH]c(=O)n(C2CC(O)C(CO)O2)cc1C#Cc1ccc(F)cc1 (stereo not given) | > 100 |  | > 100 | > 100 | > 100 | > 100 | > 100 | > 100 |  |  |  |  |  | > 100 |  |  |  |  |  |  |
| COc1cc2c(cc1C1=NC(C)(C)CO1)OCO2 | > 100 |  | > 100 | > 100 | > 100 |  | > 100 | > 100 |  |  |  |  |  | > 100 |  |  |  |  |  |  |
| CCN(CC)CCn1[nH]c2c3ccc(=O)cc3sc3c(NCCN)ccc1c32 | 8.94 | 3.32 |  | 6.2 | 1.42 | 1.03 | 12.7 | 8.07 |  |  |  |  |  | 8.57 |  |  |  |  |  |  |
| COC1OC(C)C2OC(C)(C)OC2C1OC(C)=O (stereo not given) | > 100 | > 100 | > 100 | > 100 | > 100 | > 100 | > 100 | > 100 |  |  |  |  |  | > 100 |  |  |  |  |  |  |
| O=C(/C=C/C12c3ccccc3C(c3ccccc31)C1C(=O)NC(=O)C12)c1ccc(Cl)cc1 (stereo not given) | 3.16 | 2.6 | 3.77 |  | > 100 | 3 | 2.66 |  | 1.73 | 1.28 | 1.91 |  | 1.67 | 3.4 | 1.99 | 1.6 | 1.34 | 4.05 | 1.13 |  |
| CCOC(=O)C(CNc1ccc(O)cc1)NC(=O)c1ccccc1 (stereo not given) | > 100 | > 100 | > 100 | > 100 | > 100 | > 100 | > 100 | > 100 |  |  |  |  |  | > 100 |  |  |  |  |  |  |
| C#CCN(C(=O)C(F)(F)F)c1ccc(C(=O)c2ccc(N(CC#C)C(=O)C(F)(F)F)cc2)cc1 | > 100 |  | 92.5 | 45.4 | 62.9 |  | > 100 | > 100 |  |  |  |  |  | > 100 |  |  |  |  |  |  |
| CN(/N=C/c1cccc2cccnc12)c1c([N+](=O)[O-])cc([N+](=O)[O-])cc1[N+](=O)[O-] | > 100 | > 100 | > 100 | > 100 | > 100 | > 100 | > 100 | > 100 |  |  |  |  |  | > 100 |  |  |  |  |  |  |
